The values that follow come from patent publication US20230203059A1, “MACROCYCLIC JAK INHIBITOR AND USES THEREOF” (Biopolar Hongye (Guangdong) Pharmaceutical Co. Ltd., priority 2020, published 2023).

Common to all, as to assay type: biochemical
The target in one test is T1, JAK3 (Homo sapiens, UniProt P52333).
T1 sequence (P52333 1-1124): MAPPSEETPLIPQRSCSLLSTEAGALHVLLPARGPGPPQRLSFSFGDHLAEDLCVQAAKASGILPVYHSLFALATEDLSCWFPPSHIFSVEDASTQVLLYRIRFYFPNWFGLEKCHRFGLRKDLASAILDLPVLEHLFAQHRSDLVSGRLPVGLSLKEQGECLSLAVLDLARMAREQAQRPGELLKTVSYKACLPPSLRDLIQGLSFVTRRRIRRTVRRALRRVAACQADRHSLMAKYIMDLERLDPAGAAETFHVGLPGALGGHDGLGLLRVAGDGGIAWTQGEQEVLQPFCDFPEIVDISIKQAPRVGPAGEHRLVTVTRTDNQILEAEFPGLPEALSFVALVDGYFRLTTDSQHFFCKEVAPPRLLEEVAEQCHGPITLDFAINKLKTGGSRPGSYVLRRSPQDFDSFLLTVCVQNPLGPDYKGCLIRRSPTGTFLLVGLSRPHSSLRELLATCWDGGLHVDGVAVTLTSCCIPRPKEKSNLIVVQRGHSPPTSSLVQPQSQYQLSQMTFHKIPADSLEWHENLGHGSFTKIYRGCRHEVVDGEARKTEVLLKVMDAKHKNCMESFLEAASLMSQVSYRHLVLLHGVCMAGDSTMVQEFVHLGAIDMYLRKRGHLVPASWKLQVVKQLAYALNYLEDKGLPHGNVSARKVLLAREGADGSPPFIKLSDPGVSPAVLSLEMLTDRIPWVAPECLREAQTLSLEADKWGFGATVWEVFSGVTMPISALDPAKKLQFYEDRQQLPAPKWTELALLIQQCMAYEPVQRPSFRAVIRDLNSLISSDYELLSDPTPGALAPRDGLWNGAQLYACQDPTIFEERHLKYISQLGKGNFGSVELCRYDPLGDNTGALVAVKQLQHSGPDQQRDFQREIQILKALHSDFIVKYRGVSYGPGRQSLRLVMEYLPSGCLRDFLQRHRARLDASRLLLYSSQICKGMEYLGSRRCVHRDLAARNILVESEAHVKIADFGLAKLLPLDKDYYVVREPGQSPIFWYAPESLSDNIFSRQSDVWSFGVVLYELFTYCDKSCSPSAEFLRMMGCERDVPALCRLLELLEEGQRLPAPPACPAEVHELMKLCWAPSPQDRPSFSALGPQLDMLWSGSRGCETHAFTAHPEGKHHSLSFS
Description: JAK kinase activity, homogeneous time-resolved fluorescence (JAK3 reaction system). The note with it: ATP 2 μM, JAK3 protein 0.04 ng/μL; read-out: JAK 3 activity.

The target of the next test is JAK2 (Homo sapiens, UniProt O60674). Description: JAK kinase activity, homogeneous time-resolved fluorescence (JAK2 reaction system). The note with it: ATP 2 μM, JAK2 protein 0.01 ng/μL. The essentials:
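IC50 derived by Hill-equation fit of the 665/615 nm time-resolved fluorescence ratio after EDTA-containing detection mix with anti-phosphosubstrate antibody. Preceding 1 h reaction contained 2 μM ATP, 0.01 ng/μL JAK2, substrate, 50 mM Hepes pH 7.0, 5 mM MgCl2, 1 mM DTT.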

A further test deals with JAK1 (Homo sapiens, UniProt P23458). Put plainly: JAK kinase activity, homogeneous time-resolved fluorescence (JAK1 reaction system). The conditions noted are these: ATP 2 μM, JAK1 protein 0.2 ng/μL; read-out: JAK 1 activity. The essentials: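 Kinase activity read as the 665 nm/615 nm time-resolved fluorescence ratio (320 nm excitation) after EDTA-containing antibody and XL-615 addition. Reaction ran 1 h at pH 7.0 (Hepes, MgCl2, DTT) with 0.2 ng/μL JAK1 and ATP at 2 μM. IC50 derived by Hill-slope fit.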
Sequence of JAK1 (P23458 whole entry): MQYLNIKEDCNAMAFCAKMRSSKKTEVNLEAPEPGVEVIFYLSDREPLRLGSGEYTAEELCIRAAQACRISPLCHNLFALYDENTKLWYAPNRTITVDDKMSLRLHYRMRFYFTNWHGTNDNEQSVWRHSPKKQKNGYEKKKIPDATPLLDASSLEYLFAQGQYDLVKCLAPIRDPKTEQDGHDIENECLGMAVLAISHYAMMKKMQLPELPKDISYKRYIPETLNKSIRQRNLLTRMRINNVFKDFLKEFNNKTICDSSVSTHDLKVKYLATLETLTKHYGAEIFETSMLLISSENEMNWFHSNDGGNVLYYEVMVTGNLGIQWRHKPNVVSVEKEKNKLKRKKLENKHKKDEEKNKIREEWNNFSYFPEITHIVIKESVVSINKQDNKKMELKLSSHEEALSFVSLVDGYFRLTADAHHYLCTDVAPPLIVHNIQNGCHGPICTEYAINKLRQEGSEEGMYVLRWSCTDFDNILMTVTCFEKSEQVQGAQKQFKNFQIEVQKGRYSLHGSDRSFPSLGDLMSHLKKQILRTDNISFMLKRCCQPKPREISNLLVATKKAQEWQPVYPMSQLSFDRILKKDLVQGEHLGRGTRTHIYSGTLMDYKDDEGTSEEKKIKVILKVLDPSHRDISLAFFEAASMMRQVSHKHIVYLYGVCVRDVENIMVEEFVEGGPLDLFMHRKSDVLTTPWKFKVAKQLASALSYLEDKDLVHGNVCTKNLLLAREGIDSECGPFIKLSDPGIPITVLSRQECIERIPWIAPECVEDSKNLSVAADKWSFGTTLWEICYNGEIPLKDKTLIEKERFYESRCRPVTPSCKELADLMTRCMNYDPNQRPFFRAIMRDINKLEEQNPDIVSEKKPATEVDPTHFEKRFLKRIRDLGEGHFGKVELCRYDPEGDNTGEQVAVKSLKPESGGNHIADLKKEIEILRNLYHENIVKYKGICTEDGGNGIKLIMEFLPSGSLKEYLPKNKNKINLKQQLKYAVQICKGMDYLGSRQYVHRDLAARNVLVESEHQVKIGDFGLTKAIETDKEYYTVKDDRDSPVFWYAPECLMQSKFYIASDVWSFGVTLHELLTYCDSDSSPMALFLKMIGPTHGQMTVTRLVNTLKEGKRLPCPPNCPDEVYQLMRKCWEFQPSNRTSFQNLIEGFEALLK

For the next test, the target named is TYK2 (Homo sapiens, UniProt P29597). Put plainly: JAK kinase activity, homogeneous time-resolved fluorescence (TYK2 reaction system). The note with it: ATP 2 μM, TYK2 protein 0.2 ng/μL; read-out: TYK 2 activity. The essentials:
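Activity read as the 665 nm/615 nm ratio after adding EDTA-containing detection mix with anti-phospho-substrate antibody and XL-615. Beforehand, 0.2 ng/μL TYK2, 2 μM ATP, substrate and compound reacted 1 h in pH 7.0 Hepes buffer with MgCl2 and DTT. IC50 fitted with Hill-slope equation.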

Some results are limits rather than exact numbers.

Sequence of TYK2 (P29597 whole entry): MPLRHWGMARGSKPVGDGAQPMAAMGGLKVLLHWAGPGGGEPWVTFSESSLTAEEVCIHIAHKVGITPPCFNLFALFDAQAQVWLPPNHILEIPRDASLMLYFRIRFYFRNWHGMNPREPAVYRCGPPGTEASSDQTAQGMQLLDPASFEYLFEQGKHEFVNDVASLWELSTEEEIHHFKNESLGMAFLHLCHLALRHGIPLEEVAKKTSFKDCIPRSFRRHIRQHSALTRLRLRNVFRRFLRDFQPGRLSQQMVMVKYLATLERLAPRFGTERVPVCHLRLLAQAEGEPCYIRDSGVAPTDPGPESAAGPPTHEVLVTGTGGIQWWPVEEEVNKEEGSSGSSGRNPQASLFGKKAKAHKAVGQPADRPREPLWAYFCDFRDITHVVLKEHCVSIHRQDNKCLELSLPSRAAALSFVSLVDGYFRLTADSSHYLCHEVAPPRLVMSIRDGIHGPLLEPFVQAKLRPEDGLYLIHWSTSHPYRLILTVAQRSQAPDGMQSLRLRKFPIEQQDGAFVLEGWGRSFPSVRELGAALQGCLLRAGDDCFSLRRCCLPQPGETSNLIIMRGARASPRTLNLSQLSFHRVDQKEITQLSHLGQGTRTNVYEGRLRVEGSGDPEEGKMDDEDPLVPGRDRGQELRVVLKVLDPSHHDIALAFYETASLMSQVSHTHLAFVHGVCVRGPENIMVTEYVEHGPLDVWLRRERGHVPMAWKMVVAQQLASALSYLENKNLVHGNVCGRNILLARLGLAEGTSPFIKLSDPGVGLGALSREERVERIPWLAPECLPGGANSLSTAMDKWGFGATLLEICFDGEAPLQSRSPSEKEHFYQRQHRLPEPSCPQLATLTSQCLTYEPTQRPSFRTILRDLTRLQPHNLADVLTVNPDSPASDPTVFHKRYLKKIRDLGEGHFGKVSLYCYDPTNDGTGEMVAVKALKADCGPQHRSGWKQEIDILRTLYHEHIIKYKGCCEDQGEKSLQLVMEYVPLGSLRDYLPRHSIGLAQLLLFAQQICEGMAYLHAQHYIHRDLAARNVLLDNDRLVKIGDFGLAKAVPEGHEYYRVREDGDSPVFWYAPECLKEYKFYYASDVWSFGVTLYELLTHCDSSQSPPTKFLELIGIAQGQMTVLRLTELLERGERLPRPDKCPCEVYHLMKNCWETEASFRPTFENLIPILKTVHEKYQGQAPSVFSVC
Sequence of JAK2 (O60674 whole entry): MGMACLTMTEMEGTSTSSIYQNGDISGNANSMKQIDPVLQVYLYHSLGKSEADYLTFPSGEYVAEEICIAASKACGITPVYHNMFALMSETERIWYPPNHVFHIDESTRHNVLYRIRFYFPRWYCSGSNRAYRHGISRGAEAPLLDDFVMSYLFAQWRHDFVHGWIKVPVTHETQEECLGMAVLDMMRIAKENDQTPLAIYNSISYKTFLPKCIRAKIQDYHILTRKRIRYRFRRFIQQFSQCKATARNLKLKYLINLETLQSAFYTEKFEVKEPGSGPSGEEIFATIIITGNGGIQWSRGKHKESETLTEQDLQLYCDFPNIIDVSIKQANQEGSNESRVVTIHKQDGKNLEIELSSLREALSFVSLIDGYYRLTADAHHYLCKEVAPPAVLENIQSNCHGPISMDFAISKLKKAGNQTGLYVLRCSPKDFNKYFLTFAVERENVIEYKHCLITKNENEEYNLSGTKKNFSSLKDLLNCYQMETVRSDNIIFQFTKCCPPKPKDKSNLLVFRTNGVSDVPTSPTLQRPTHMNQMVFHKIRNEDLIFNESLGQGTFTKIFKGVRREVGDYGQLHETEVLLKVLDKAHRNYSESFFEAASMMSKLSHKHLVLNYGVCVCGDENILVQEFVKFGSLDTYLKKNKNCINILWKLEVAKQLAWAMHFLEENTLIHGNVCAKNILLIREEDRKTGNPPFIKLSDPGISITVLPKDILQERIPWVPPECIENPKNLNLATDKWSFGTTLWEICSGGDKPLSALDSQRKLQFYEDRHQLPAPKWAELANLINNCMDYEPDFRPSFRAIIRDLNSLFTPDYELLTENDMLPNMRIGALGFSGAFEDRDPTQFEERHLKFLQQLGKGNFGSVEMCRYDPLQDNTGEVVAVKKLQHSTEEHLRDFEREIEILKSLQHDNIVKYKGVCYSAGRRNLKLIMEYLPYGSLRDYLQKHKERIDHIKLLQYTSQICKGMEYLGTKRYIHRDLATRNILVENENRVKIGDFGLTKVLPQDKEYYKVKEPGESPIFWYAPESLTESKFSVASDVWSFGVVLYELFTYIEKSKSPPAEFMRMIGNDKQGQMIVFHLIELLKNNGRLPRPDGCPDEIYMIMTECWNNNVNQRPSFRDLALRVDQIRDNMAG

Consider `CC1CCNC(=O)c2ccc(c([N+](=O)[O-])c2)-c2ccnc(n2)Nc2ccc(OCC3CC3)c(c2)COC1` (stereo not shown) [Example 144, 4^4-(cyclopropylmethoxy)-8-methyl-1^2-nitro-6-oxa-3,11-diaza-2(4,2)-pyrimidina-1(1,4),4(1,3)-dibenzena-cyclododecaphan-12-one], for which the IC50 is 1000 to 10000 nM at JAK3, greater than 10000 nM against JAK2, greater than 10000 nM at JAK1 and greater than 10000 nM at TYK2.

For `CC1CCNC(=O)c2ccc(c(N)c2)-c2ccnc(n2)Nc2ccc(OCC3CC3)c(c2)COC1` (stereo not shown) [Example 145, 1^2-amino-4^4-(cyclopropylmethoxy)-8-methyl-6-oxa-3,11-diaza-2(4,2)-pyrimidina-1(1,4),4(1,3)-dibenzena-cyclododecaphan-12-one], the IC50 is less than 10 nM on JAK3, 101 to 1000 nM on JAK2, 101 to 1000 nM at JAK1 and 1000 to 10000 nM on TYK2.

On to `O=C1NCCCCOCc2cc(ccc2OCC2CCCOC2)Nc2nccc(n2)-c2ccc1cc2[N+](=O)[O-]` (stereo not shown) [Example 146, 1^2-nitro-4^4-((tetrahydro-2H-pyran-3-yl)methoxy)-6-oxa-3,11-diaza-2(4,2)-pyrimidina-1(1,4),4(1,3)-dibenzenacyclododecaphan-12-one], for which the IC50 was 101 to 1000 nM at JAK3, 1000 to 10000 nM at JAK2, greater than 10000 nM on JAK1 and greater than 10000 nM on TYK2.

For `Nc1cc2ccc1-c1ccnc(n1)Nc1ccc(OCC3CCCOC3)c(c1)COCCCCNC2=O` (stereo not shown) [Example 147], the IC50 is less than 10 nM on JAK3, 101 to 1000 nM against JAK2, 101 to 1000 nM on JAK1 and 1000 to 10000 nM at TYK2.

For `Nc1cc2ccc1-c1ccnc(n1)Nc1ccc(OCc3cccc4c3OCC4)c(c1)COCCCCNC2=O` [Example 148, 1^2-amino-4^4-((2,3-dihydrobenzofu-ran-7-yl)methoxy)-6-oxa-3,11-dia-za-2(4,2)-pyrimidina-1(1,4),4(1,3)-dibenzenacyclododecaphan-12-one], the IC50 is less than 10 nM on JAK3, 101 to 1000 nM against JAK2, 1000 to 10000 nM at JAK1 and greater than 10000 nM at TYK2.

`CC1CCNC(=O)c2ccc(c(N)c2)-c2ccnc(n2)Nc2ccc(OCC3CCCCC3)c(c2)COC1` (stereo not shown) [Example 149, 1^2-amino-4^4-(cyclohexylmethoxy)-8-methyl-6-oxa-3,11-diaza-2(4,2)-pyrimidina-1(1,4),4(1,3)-dibenzena-cyclododecaphan-12-one]: the IC50 on JAK3 was 11 to 100 nM; on JAK2, 1000 to 10000 nM; on JAK1, 1000 to 10000 nM; on TYK2, greater than 10000 nM.

As for `O=C1NCCCCOCc2cc(ccc2OCc2cccc3c2CCO3)Nc2nccc(n2)-c2ccc1cc2[N+](=O)[O-]` [Example 150, 4^4-((2,3-dihydroxybenzofuran-4-yl)methoxy)-1^2-nitro-6-oxa-3,11-diaza-2(4,2)-pyrimidina-1(1,4),4(1,3)-dibenzenacyclododecaphan-12-one], the IC50 was 1000 to 10000 nM on JAK3, greater than 10000 nM on JAK2, greater than 10000 nM at JAK1 and greater than 10000 nM at TYK2.

In the case of `Nc1cc2ccc1-c1ccnc(n1)Nc1ccc(OCc3cccc4c3CCO4)c(c1)COCCCCNC2=O` [Example 151, 1^2-amino-4^4-((2,3-dihydrobenzofu-ran-4-yl)methoxy)-6-oxa-3,11-dia-za-2(4,2)-pyrimidina-1(14),4(1,3)-dibenzenacyclododecaphan-12-one], the IC50 on JAK3 was 11 to 100 nM; against JAK2, 101 to 1000 nM; at JAK1, 1000 to 10000 nM; on TYK2, 1000 to 10000 nM.

For the molecule `O=C1NCCCCOCc2cc(ccc2OCc2ccccc2F)Nc2nccc(n2)-c2ccc1cc2[N+](=O)[O-]` [Example 152, 4^4-((2-fluorobenzyl)oxy)-1^2-nitro-6-oxa-3,11-diaza-2(4,2)-pyrimidina-1(1,4),4(1,3)-dibenzenacyclodo-decaphan-12-one], the IC50 on JAK3 was 101 to 1000 nM; on JAK2, 1000 to 10000 nM; at JAK1, 1000 to 10000 nM; at TYK2, greater than 10000 nM.

Regarding `Nc1cc2ccc1-c1ccnc(n1)Nc1ccc(OCc3ccccc3F)c(c1)COCCCCNC2=O` [Example 153, 1^2-amino-4^4-((2-fluorobenzyl)oxy)-6-oxa-3,11-diaza-2(4,2)-pyrimidi-na-1(1,4),4(1,3)-dibenzenacyclo-dodecaphan-12-one], the IC50 on JAK3 was less than 10 nM; against JAK2, 101 to 1000 nM; at JAK1, 1000 to 10000 nM; on TYK2 it was greater than 10000 nM.

`O=C1NCCCCOCc2cc(ccc2OCC2Cc3ccccc3O2)Nc2nccc(n2)-c2ccc1cc2[N+](=O)[O-]` (stereo not shown) [Example 154, 4^4-((2,3-dihydroxybenzofuran-2-yl)methoxy)-1^2-nitro-6-oxa-3,11-diaza-2(4,2)-pyrimidina-1(1,4),4(1,3)-dibenzenacyclododecaphan-12-one]: the IC50 at JAK3 is 101 to 1000 nM; against JAK2, 1000 to 10000 nM; at JAK1 it was 1000 to 10000 nM; at TYK2 it was greater than 10000 nM.

`Nc1cc2ccc1-c1ccnc(n1)Nc1ccc(OCC3Cc4ccccc4O3)c(c1)COCCCCNC2=O` (stereo not shown) [Example 155, 1^2-amino-4^4-((2,3-dihydroxybenzo-furan-2-yl)methoxy)-6-oxa-3,11-di-aza-2(4,2)-pyrimidina-1(1,4),4(1,3)-dibenzenacyclododecaphan-12-one]: the IC50 at JAK3 was in the range of 11 to 100 nM; against JAK2, 101 to 1000 nM; on JAK1, 1000 to 10000 nM; on TYK2, 1000 to 10000 nM.

In the case of `COc1ccccc1COc1ccc2cc1COCCCCNC(=O)c1ccc(c(N)c1)-c1ccnc(n1)N2` [Example 156, 1^2-amino-4^4-((2-methoxybenzyl)oxy)-6-oxa-3,11-diaza-2(4,2)-pyri-midina-1(1,4),4(1,3)-dibenzena-cyclododecaphan-12-one], the IC50 is 11 to 100 nM at JAK3, 101 to 1000 nM on JAK2, 1000 to 10000 nM on JAK1 and greater than 10000 nM at TYK2.

As to `CC1CCOCc2cc(ccc2OC2CC2)Nc2nccc(n2)-c2ccc(cc2N)C(=O)NC1` (stereo not shown) [Example 157, 1^2-amino-4^4-cyclopropoxy-9-meth-yl-6-oxa-3,11-diaza-2(4,2)-pyrimi-dina-1(1,4),4(1,3)-dibenzenacyclo-dodecaphan-12-one], the IC50 at JAK3 was less than 10 nM; against JAK2, 11 to 100 nM; on JAK1, 101 to 1000 nM; on TYK2, 101 to 1000 nM.

Turning to `CC1CCOCc2cc(ccc2OC2CC2)Nc2nccc(n2)-c2ccc(cc2[N+](=O)[O-])C(=O)NC1` (stereo not shown) [Example 158, 4^4-cyclopropoxy-9-methyl-1^2-nitro-6-oxa-3,11-diaza-2(4,2)-pyrimi-dina-1(1,4),4(1,3)-dibenzenacyclo-dodecaphan-12-one], the IC50 at JAK3 is 101 to 1000 nM; against JAK2 it was greater than 10000 nM; on JAK1 it was 1000 to 10000 nM; at TYK2, greater than 10000 nM.

In the case of `Nc1cc2ccc1-c1ccnc(n1)Nc1ccc(OCc3cccc4c3COC4)c(c1)COCCCCNC2=O` [Example 160, 1^2-amino-4^4-((1,3-dihydroisobenzo-furan-4-yl)methoxy)-6-oxa-3,11-diaza-2(4,2)-pyrimidina-1(1,4),4(1,3)-dibenzenacyclododecaphan-12-one], the IC50 at JAK3 fell in the range of 11 to 100 nM; against JAK2 it was 101 to 1000 nM; on JAK1 it was 1000 to 10000 nM; on TYK2, 1000 to 10000 nM.
